Laboratory results from ChEMBL document CHEMBL4130359, “Indazole-based ligands for estrogen-related receptor α as potential anti-diabetic agents” (Eur J Med Chem, 2017).

Legend:
[1] = Tmax in […] at 15 mg/kg administered via oral gavage by LC-MS analysis; assay type: ADME, organism-based; conditions: in vivo
[2] = biological target: Retinoic acid receptor RXR-beta (Homo sapiens, UniProt P28702); assay: Antagonist activity at recombinant GST-tagged human RXRbeta LBD assessed as inhibition of all-trans-retinoic acid-induced fluorescein-labeled coactivator peptide recruitment preincubated with enzyme followed by coactivator addition by LanthaScreen TR-FRET assay
[3] = tested on: Rattus norvegicus; assay: Toxicity in Zucker rat sub-chronic fa/fa prediabetic model assessed as serum triglyceride level at 3 mg/kg, po qd for 31 days measured on day 32 (reference value: 1382 +/- 268 mg/dl); assay type: organism-based; conditions: in vivo, 744 h
[4] = tested on: Rattus norvegicus; assay: Toxicity in Zucker rat sub-chronic fa/fa prediabetic model assessed as insulin level per gram pancreas at 3 mg/kg, po qd for 31 days measured on day 32 (reference value: 55.2 +/- 5.5 ug); assay type: organism-based; conditions: in vivo, 744 h
[5] = tested on: Rattus norvegicus; assay: Effect on PLCB1 gene expression in epididymal white adipose tissue of Zucker rat sub-chronic fa/fa prediabetic model at 10 mg/kg, po qd for 15 days by microarray analysis relative to control; assay type: functional
[6] = tested on: Rattus norvegicus; assay: Effect on NFATC4 gene expression in epididymal white adipose tissue of Zucker rat sub-chronic fa/fa prediabetic model at 10 mg/kg, po qd for 15 days by microarray analysis relative to control; assay type: functional
[7] = biological target: Retinoic acid receptor RXR-alpha (Homo sapiens, UniProt P19793); assay: Antagonist activity at recombinant GST-tagged human RXRalpha LBD assessed as inhibition of 9-cis-retinoic acid-induced fluorescein-labeled coactivator peptide recruitment preincubated with enzyme followed by coactivator addition by LanthaScreen TR-FRET assay
[8] = tested on: Rattus norvegicus; assay: Toxicity in Zucker rat sub-chronic fa/fa prediabetic model assessed as serum cholesterol level at 3 mg/kg, po qd for 31 days measured on day 32 (reference value: 295 +/- 91 mg/dl); assay type: organism-based; conditions: in vivo, 744 h
[9] = tested on: Rattus norvegicus; assay: Toxicity in […] chronic ob/ob model assessed as food intake at 50 mg/kg, po qd for 28 days measured on day 1 to 28 during compound dosing (reference value: 170.6 +/- 3 g); assay type: organism-based; conditions: in vivo, 672 h
[10] = tested on: Rattus norvegicus; assay: Toxicity in Zucker rat sub-chronic fa/fa prediabetic model assessed as serum AST level at 3 mg/kg, po qd for 31 days measured on day 32 (reference value: 187 +/- 37 U/L); assay type: organism-based; conditions: in vivo, 744 h
[11] = tested on: Rattus norvegicus; assay: Effect on ECHS1 gene expression in epididymal white adipose tissue of Zucker rat sub-chronic fa/fa prediabetic model at 10 mg/kg, po qd for 15 days by microarray analysis relative to control; assay type: functional
[12] = tested on: Rattus norvegicus; assay: Effect on SUCLG1 gene expression in epididymal white adipose tissue of Zucker rat sub-chronic fa/fa prediabetic model at 10 mg/kg, po qd for 15 days by microarray analysis relative to control; assay type: functional
[13] = tested on: Rattus norvegicus; assay: Toxicity in Zucker rat sub-chronic fa/fa prediabetic model assessed as serum creatinine level at 50 mg/kg, po qd for 31 days measured on day 32 (reference value: 0.71 +/- 0.07 mg/dl); assay type: organism-based; conditions: in vivo, 744 h
[14] = tested on: Rattus norvegicus; assay: Toxicity in […] model assessed as serum BUN level at 3 mg/kg, po qd for 31 days measured on day 32 (reference value: 28.3 +/- […]); assay type: organism-based; conditions: in vivo, 744 h
[15] = Drug uptake in plasma of Zucker rat sub-chronic fa/fa prediabetic model at 12.5 mg/kg, po qd for 11 days; assay type: ADME, organism-based
[16] = Cmax in […] chronic ob/ob model at 10 mg/kg, po qd measured on day 1 post dose; assay type: ADME, organism-based; design: dose 10 mg/kg, route oral; conditions: in vivo
[17] = tested on: Rattus norvegicus; assay: Toxicity in […] chronic ob/ob model assessed as body weight at 3 mg/kg, po qd for 28 days measured on day 28 post last dose (reference value: 47.3 +/- 1.06 g); assay type: organism-based; conditions: in vivo, 672 h
[18] = tested on: Rattus norvegicus; assay: Effect on NDUFS4 gene expression in epididymal white adipose tissue of Zucker rat sub-chronic fa/fa prediabetic model at 10 mg/kg, po qd for 15 days by microarray analysis relative to control; assay type: functional
[19] = tested on: Rattus norvegicus; assay: Toxicity in Zucker rat sub-chronic fa/fa prediabetic model assessed as food intake at 1 mg/kg, po qd for 29 days measured on day 1 to 29 during compound dosing (reference value: 969 +/- 18 g); assay type: organism-based; conditions: in vivo, 696 h
[20] = AUC (0 to 24 hrs) in Zucker rat sub-chronic fa/fa prediabetic model at 10 mg/kg, po qd for 26 days measured on day 26 post last dose; assay type: ADME, organism-based; design: dose 10 mg/kg, time < 24 hr, route oral; conditions: in vivo
[21] = tested on: Rattus norvegicus; assay: Toxicity in Zucker rat sub-chronic fa/fa prediabetic model assessed as triglyceride level per gram liver at 1 mg/kg, po qd for 31 days measured on day 32 (reference value: 163.4 +/- 8.3 mg); assay type: organism-based; conditions: in vivo, 744 h
[22] = tested on: Rattus norvegicus; assay: Toxicity in Zucker rat sub-chronic fa/fa prediabetic model assessed as change in body weight at 10 mg/kg, po qd for 29 days measured on day 1 to 29 during compound dosing (reference value: 140 +/- 7 g); assay type: organism-based; conditions: in vivo, 696 h
[23] = tested on: Rattus norvegicus; assay: Effect on NR1H2 gene expression in epididymal white adipose tissue of Zucker rat sub-chronic fa/fa prediabetic model at 10 mg/kg, po qd for 15 days by microarray analysis relative to control; assay type: functional
[24] = tested on: Rattus norvegicus; assay: Toxicity in […] model assessed as liver weight at 10 mg/kg, po qd for 31 days measured on day 32 (reference value: 2.77 +/- 0.16 g); assay type: organism-based; conditions: in vivo, 744 h
[25] = biological target: Peroxisome proliferator-activated receptor alpha (Homo sapiens, UniProt Q07869); assay: Antagonist activity at recombinant GST-tagged human PPARalpha LBD assessed as inhibition of GW7647-induced fluorescein-labeled coactivator peptide recruitment preincubated with enzyme followed by coactivator addition by LanthaScreen TR-FRET assay
[26] = tested on: Rattus norvegicus; assay: Effect on AGPAT3 gene expression in epididymal white adipose tissue of Zucker rat sub-chronic fa/fa prediabetic model at 10 mg/kg, po qd for 15 days by microarray analysis relative to control; assay type: functional
[27] = tested on: Rattus norvegicus; assay: Toxicity in […] model assessed as serum AST level at 3 mg/kg, po qd for 31 days measured on day 32 (reference value: 180 +/- 26 U/L); assay type: organism-based; conditions: in vivo, 744 h
[28] = tested on: Rattus norvegicus; assay: Toxicity in […] model assessed as serum cholesterol level at 3 mg/kg, po qd for 31 days measured on day 32 (reference value: 195 +/- 5.5 mg/dl); assay type: organism-based; conditions: in vivo, 744 h
[29] = AUC (0 to 24 hrs) in Zucker rat sub-chronic fa/fa prediabetic model at 1 mg/kg, po qd for 26 days measured on day 26 post last dose; assay type: ADME, organism-based; design: time < 24 hr, dose 1 mg/kg, route oral; conditions: in vivo
[30] = tested on: Rattus norvegicus; assay: Toxicity in Zucker rat sub-chronic fa/fa prediabetic model assessed as epididymal white adipose tissue weight at 50 mg/kg, po qd for 31 days measured on day 32 (reference value: 13.9 +/- 0.6 g); assay type: organism-based; conditions: in vivo, 744 h
[31] = tested on: Rattus norvegicus; assay: Toxicity in Zucker rat sub-chronic fa/fa prediabetic model assessed as epididymal white adipose tissue weight at 1 mg/kg, po qd for 31 days measured on day 32 (reference value: 13.9 +/- 0.6 g); assay type: organism-based; conditions: in vivo, 744 h
[32] = tested on: Rattus norvegicus; assay: Antidiabetic activity in […] chronic ob/ob model assessed as increase in plasma adiponectin level at 3 mg/kg, po qd for 31 days measured on day 32 by ELISA relative to control; assay type: functional

Sequence of Retinoic acid receptor RXR-beta (P28702 whole entry, the tested form may be a part): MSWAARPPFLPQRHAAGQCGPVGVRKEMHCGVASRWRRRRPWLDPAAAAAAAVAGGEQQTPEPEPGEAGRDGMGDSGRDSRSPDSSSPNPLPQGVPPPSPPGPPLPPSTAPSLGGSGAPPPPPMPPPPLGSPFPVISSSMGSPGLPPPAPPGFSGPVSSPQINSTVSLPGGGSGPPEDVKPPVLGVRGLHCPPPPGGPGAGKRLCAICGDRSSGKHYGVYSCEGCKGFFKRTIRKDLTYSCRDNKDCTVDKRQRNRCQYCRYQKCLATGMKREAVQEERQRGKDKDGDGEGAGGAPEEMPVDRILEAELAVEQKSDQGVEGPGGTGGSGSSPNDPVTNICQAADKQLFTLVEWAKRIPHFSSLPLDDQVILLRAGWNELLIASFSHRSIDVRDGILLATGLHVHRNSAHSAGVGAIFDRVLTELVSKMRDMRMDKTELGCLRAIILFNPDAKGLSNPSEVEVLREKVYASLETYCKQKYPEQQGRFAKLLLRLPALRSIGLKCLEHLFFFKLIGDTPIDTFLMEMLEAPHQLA
Sequence of Peroxisome proliferator-activated receptor alpha (Q07869 whole entry, the tested form may be a part): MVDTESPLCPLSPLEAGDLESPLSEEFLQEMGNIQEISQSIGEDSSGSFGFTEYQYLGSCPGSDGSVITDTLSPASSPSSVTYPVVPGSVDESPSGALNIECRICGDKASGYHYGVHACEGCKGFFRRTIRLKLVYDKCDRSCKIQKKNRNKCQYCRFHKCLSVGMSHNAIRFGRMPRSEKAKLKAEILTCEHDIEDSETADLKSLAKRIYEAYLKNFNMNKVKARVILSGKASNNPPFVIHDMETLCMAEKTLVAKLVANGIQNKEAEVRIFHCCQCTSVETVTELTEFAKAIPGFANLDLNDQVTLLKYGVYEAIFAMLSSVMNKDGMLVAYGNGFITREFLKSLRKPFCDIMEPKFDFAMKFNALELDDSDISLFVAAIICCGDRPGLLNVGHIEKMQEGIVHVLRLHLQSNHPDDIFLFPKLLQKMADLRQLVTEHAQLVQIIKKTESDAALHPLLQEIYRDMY
Sequence of Retinoic acid receptor RXR-alpha (P19793 whole entry, the tested form may be a part): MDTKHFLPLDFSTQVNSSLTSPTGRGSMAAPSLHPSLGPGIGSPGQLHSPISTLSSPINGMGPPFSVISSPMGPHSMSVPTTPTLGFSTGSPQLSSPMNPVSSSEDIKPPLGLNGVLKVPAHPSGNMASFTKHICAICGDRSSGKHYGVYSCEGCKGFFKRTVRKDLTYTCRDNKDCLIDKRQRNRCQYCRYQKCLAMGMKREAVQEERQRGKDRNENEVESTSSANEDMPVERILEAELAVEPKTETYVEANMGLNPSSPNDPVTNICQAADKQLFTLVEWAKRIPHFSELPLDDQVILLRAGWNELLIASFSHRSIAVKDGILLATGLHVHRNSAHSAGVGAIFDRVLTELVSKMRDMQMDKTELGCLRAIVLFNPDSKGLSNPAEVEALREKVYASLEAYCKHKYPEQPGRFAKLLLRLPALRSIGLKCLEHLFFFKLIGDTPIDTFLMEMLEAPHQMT

CN1CC[C@@H](N2C(=O)S/C(=C\c3ccc4c(cnn4Cc4ccc(Cl)cc4C(F)(F)F)c3)C2=O)[C@H](F)C1
Tmax [1]: 2.5 h
IC50 [2]: > 10 µM
Activity [3]: 584 mg/dL
Activity [4]: 90.7 µg
fold change (FC) [5]: 1.58
fold change (FC) [6]: 1.383
IC50 [7]: > 10 µM
Activity [8]: 179 mg/dL
Activity [9]: 152.4 g
Activity [10]: 111 U/L
fold change (FC) [11]: 1.35
fold change (FC) [12]: 1.401
Activity [13]: 0.54 mg/dL
Activity [14]: 25.5 mg/dL
concentration at 264 h [15]: 814 ng/mL
Cmax [16]: 520 ng/mL
Activity [17]: 43.5 g
fold change (FC) [18]: 1.239
Activity [19]: 975 g
AUC at 24 h [20]: 23900 ng·h/mL
Activity [21]: 122 mg
Activity [22]: 150 g
fold change (FC) [23]: -1.407
Activity [24]: 2.67 g
IC50 [25]: > 10 µM
fold change (FC) [26]: -1.213
Activity [27]: 211 U/L
Activity [28]: 171 mg/dL
AUC at 24 h [29]: 3200 ng·h/mL
Activity [30]: 19.3 g
Activity [31]: 16.9 g
fold change (FC) [32]: 1.4
